What follows are molecules tested against T1, His-hSHIP1 enzyme (Homo sapiens, UniProt Q92835) (assay: His-hSHIP1 activity, approach 2 (ratio of initial velocities IP4 25/IP4 250)). Conditions: ratio of initial velocities IP4 25/IP4 250 versus reference SHIP1 activator; asterisk in Table 2.
T1 construct: His
T1 sequence (Q92835 1-1189): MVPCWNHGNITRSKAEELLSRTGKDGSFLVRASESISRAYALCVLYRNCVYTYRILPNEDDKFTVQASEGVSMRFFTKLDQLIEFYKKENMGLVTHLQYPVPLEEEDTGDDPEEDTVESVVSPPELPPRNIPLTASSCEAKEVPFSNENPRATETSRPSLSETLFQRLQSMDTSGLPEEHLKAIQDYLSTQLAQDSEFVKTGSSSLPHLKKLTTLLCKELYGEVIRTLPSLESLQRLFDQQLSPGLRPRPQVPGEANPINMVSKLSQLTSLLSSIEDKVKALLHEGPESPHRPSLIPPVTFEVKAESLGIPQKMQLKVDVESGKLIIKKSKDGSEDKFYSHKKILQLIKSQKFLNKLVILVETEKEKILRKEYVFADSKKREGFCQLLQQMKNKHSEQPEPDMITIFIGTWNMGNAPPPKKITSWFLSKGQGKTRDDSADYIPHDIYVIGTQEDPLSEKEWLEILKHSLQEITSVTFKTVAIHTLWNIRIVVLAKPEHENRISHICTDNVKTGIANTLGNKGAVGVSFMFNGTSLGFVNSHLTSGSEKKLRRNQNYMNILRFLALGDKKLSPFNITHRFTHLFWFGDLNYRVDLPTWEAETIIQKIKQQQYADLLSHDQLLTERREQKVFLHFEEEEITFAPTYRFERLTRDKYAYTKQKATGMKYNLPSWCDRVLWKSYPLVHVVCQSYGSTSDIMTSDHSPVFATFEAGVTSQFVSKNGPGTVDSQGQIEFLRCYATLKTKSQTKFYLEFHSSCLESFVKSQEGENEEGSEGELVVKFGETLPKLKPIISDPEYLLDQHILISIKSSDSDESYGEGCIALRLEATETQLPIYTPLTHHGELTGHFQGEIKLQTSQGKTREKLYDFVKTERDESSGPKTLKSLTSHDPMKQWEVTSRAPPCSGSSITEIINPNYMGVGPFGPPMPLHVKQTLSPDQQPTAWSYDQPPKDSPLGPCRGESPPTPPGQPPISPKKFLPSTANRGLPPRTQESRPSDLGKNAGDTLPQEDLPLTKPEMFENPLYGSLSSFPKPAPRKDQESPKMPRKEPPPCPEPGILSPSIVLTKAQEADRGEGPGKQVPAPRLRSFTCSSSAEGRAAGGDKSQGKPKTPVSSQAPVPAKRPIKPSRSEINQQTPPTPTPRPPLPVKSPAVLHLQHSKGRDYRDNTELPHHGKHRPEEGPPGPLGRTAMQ
Format: biochemical
Set-up: key: +++: higher than reference or reference - 15%; ++: reference - 16% to reference - 30%; +: reference - 31% or lower
Description: (§1) Test compounds are dissolved in 95% ethanol to form stock solutions. Before screening, the stock solutions are diluted with Phosphatase Assay Buffer (20 mM Tris-HCL, 10 mM MgCl2 pH 7.5, 0.02% Tween 20) to form working assay solutions that contain 10% ethanol. The assay is carried out on 96-well microtiter plates using a modified procedure of that reported by Ong et al., Blood 110, 1942-1949, 2007 and Yang et al., Org Lett 7, 1073-1076, 2005, both of which references are incorporated herein by reference in their entirety.
In the second approach, a master mix is prepared that contains […] (0.4-1.6 ng/μL final), 25 μL of the substrate, IP4 (25 or 250 μM final), and 50 μL of test compound in 3.3% ethanol ([…]). Control blanks are also prepared by replacing His-hSHIP1 enzyme, IP4, or test compounds with Phosphate Assay Buffer. […] Each reaction component is preincubated at 37° C. for 30 min before adding to a 96-well microtiter plate. The master mix is then incubated at 37° C. At time 0, 20, 25 and 30 min, 25 μL of the master mix is removed and transferred to a new 96-well microtiter plate, to which 100 μL of Biomol Green Reagent is added to stop the reaction. After incubating the mixture for 20 min at room temperature for color development, the absorbance is read with SpectraMax Plus 96-well plate reader at a wavelength of 650 nm. Phosphate released is plotted against time to calculate the initial velocities (i.e., slope of the graph) at each IP4 concentration. The initial velocities are baseline corrected and the ratio of initial velocities (IP425/IP4250) is calculated and used to rate the test compounds.

Row | SMILES | Scoring, Approach 2 (Initial velocity Ratio)
1 | C[C@H]1CC[C@H]2C(C)(C)CCC[C@]2(C)[C@H]1CC(=O)Nc1cc(O)cc(O)c1 [Compound No. 149, 2-[(1S,2S,4aS,8aR)-2,5,5,8a-tetramethyl-decahydronaphthalen-1-yl]-N-(3,5-dihydroxyphenyl)acetamide] | ++
2 | C[C@@H]1[C@H](NC(=O)CNS(=O)(=O)c2ccccc2C(=O)O)C[C@H]2C(C)(C)CCC[C@]2(C)[C@H]1C(=O)c1cc(O)cc(O)c1 [Compound No. 181, 2-[({[(2R,3S,4S,4aS,8aS)-4-[(3,5-dihydroxyphenyl)carbonyl]-3,4a,8,8-tetramethyl-decahydronaphthalen-2-yl]carbamoyl}methyl)sulfamoyl]benzoic acid] | +++
3 | C[C@@H]1[C@H](NS(C)(=O)=O)C[C@H]2C(C)(C)CCC[C@]2(C)[C@H]1C(=O)c1cc(O)cc(O)c1 [Compound No. 179, N-[(2R,3S,4S,4aS,8aS)-4-[(3,5-dihydroxyphenyl)carbonyl]-3,4a,8,8-tetramethyl-decahydronaphthalen-2-yl]methanesulfonamide] | +
4 | CC(=O)N[C@@H]1C[C@H]2C(C)(C)CCC[C@]2(C)[C@@H](C(=O)c2cc(C)cc(O)c2)[C@@H]1C [Compound No. 139, N-[(2R,3S,4S,4aS,8aS)-4-[(3-hydroxy-5-methylphenyl)carbonyl]-3,4a,8,8-tetramethyl-decahydronaphthalen-2-yl]acetamide] | ++
5 | Cc1cc(O)cc(C(=O)[C@H]2[C@H](C)[C@H](N)C[C@H]3C(C)(C)CCC[C@]23C)c1 [Compound No. 136, 3-{[(1S,2S,3R,4aS,8aS)-3-amino-2,5,5,8a-tetramethyl-decahydronaphthalen-1-yl]carbonyl}-5-methylphenol] | ++
6 | Cc1cc(O)cc(C(=O)[C@H]2[C@H](C)[C@H](NS(C)(=O)=O)C[C@H]3C(C)(C)CCC[C@]23C)c1 [Compound No. 176, N-[(2R,3S,4S,4aS,8aS)-4-[(3-hydroxy-5-methylphenyl)carbonyl]-3,4a,8,8-tetramethyl-decahydronaphthalen-2-yl]methanesulfonamide] | ++
7 | C[C@@H]1[C@H](NCc2cnc[nH]2)C[C@H]2C(C)(C)CCC[C@]2(C)[C@H]1C(=O)c1cc(O)cc(O)c1 [Compound No. 119, 5-{[(1S,2S,3R,4aS,8aS)-3-[(1H-imidazol-5-ylmethyl)amino]-2,5,5,8a-tetramethyl-decahydronaphthalen-1-yl]carbonyl}benzene-1,3-diol] | ++
8 | C[C@@H]1[C@H](NC(=O)Nc2cccnc2)C[C@H]2C(C)(C)CCC[C@]2(C)[C@H]1C(=O)c1cc(O)cc(O)c1 [Compound No. 118, 3-[(2R,3S,4S,4aS,8aS)-4-[(3,5-dihydroxyphenyl)carbonyl]-3,4a,8,8-tetramethyl-decahydronaphthalen-2-yl]-1-(pyridin-3-yl)urea] | +++
9 | Cc1cc(O)cc(C(=O)[C@H]2[C@H](C)[C@H](NC(=N)N)C[C@H]3C(C)(C)CCC[C@]23C)c1 [Compound No. 175, 1-[(2R,3S,4S,4aS,8aS)-4-[(3-hydroxy-5-methylphenyl)carbonyl]-3,4a,8,8-tetramethyl-decahydronaphthalen-2-yl]guanidine] | ++
10 | COc1cc(OC)cc(S(=O)(=O)C[C@H]2C(C)C(O)C[C@H]3C(C)(C)CCC[C@]23C)c1 (stereo partly drawn) [Compound No. 173, (4S,4aS,8aS)-4-{[(3,5-dimethoxybenzene)sulfonyl]methyl}-3,4a,8,8-tetramethyl-decahydronaphthalen-2-ol] | +++
11 | Cc1cc(O)cc(C(=O)[C@H]2[C@H](C)[C@H](NC(=O)Nc3cccnc3)C[C@H]3C(C)(C)CCC[C@]23C)c1 [Compound No. 138, 3-[(2R,3S,4S,4aS,8aS)-4-[(3-hydroxy-5-methylphenyl)carbonyl]-3,4a,8,8-tetramethyl-decahydronaphthalen-2-yl]-1-(pyridin-3-yl)urea] | ++
12 | COc1cc(OC)cc(C(=O)C2=C(C)[C@H](O)C[C@H]3C(C)(C)CCC[C@]23C)c1 [Compound No. 142, (2R,4aS,8aS)-4-[(3,5-dimethoxyphenyl)carbonyl]-3,4a,8,8-tetramethyl-1,2,4a,5,6,7,8,8a-octahydronaphthalen-2-ol] | ++
13 | Cc1cc(O)cc(C(=O)[C@H]2[C@H](C)[C@H](NCc3cnc[nH]3)C[C@H]3C(C)(C)CCC[C@]23C)c1 [Compound No. 137, 3-{[(1S,2S,3R,4aS,8aS)-3-[(1H-imidazol-5-ylmethyl)amino]-2,5,5,8a-tetramethyl-decahydronaphthalen-1-yl]carbonyl}-5-methylphenol] | ++
14 | CC1(C)CCC[C@]2(C)[C@@H](Cc3cc(O)cc(O)c3)[C@@H](C(=O)O)CC[C@@H]12 [Compound No. 157, (1S,2S,4aS,8aR)-1-[(3,5-dihydroxyphenyl)methyl]-5,5,8a-trimethyl-decahydronaphthalene-2-carboxylic acid] | ++

The molecules below were run against T1, His-hSHIP1 enzyme (assay: His-hSHIP1 activity, approach 1 (phosphate release from IP4, Biomol Green)). Conditions: activation of His-hSHIP1; IP4 50 μM; test compound 0-300 μM; no asterisk in Table 2.
Format: biochemical
Description: as §1
Data were generated by one of two variant methods. Test compounds are screened by one of two approaches described as follows. In the first approach, each reaction contains 5 μL of His-hSHIP1 enzyme (5-20 ng), 10 μL of the substrate, 1,3,4,5-inositol tetrakisphosphate (IP4; 50 μM final), 5 μL of Phosphatase Assay Buffer, and 5 µL of test compound at various concentrations in 10% ethanol (0-300 μM final). Control blanks are also prepared by replacing His-hSHIP1 enzyme, IP4, or test compounds with Phosphatase Assay Buffer. After adding the reaction components in a 96-well microtiter plate on ice, the reaction is mixed by briefly shaking the plate vigorously. The reaction is then incubated at 37° C. for 15 min with gentle shaking followed by addition of 100 μL of Biomol Green Reagent (BIOMOL, Pa., USA) to terminate the reaction. The free phosphate released from IP4 by His-hSHIP1 binds to the Biomol Green Reagent, which turns the dye to green color. After incubating the mixture for 20 min at room temperature for color development, the absorbance is read with SpectraMax Plus 96-well plate reader (Molecular Devices, Sunnyvale, Calif., USA) at a wavelength of 650 nm.

Row | SMILES | Scoring, Approach 1 (% increase relative to background)
15 | Cc1cc(O)cc(C(=O)[C@H]2[C@H](C)C(C(N)=O)C[C@H]3C(C)(C)CCC[C@]23C)c1 (stereo partly drawn) [Compound No. 65, (3S,4S,4aS,8aS)-4-[(3-hydroxy-5-methylphenyl)carbonyl]-3,4a,8,8-tetramethyl-decahydronaphthalene-2-carboxamide] | +++ (x ≥65)
16 | COc1cc(C)cc(OC[C@H]2C(C)C(O)C[C@H]3C(C)(C)CCC[C@]23C)c1 (stereo partly drawn) [Compound No. 30, (4S,4aS,8aS)-4-(3-methoxy-5-methylphenoxymethyl)-3,4a,8,8-tetramethyl-decahydronaphthalen-2-ol] | + (0 < x < 50)
17 | Cc1cc(O)cc(C(=O)C2[C@@H](C)[C@H](O)C[C@H]3C(C)(C)CCC[C@]23C)c1 (stereo partly drawn) [Compound No. 9, (2R,3R,4aS,8aS)-4-[(3-hydroxy-5-methylphenyl)carbonyl]-3,4a,8,8-tetramethyl-decahydronaphthalen-2-ol] | + (0 < x < 50)

From US10272081B2, “SHIP1 modulators and methods related thereto” (Aquinox Pharmaceuticals (Canada) Inc., priority 2013, dated 2019)
